Measurements reported in patent US20190083521A1, “COMBINATION THERAPY FOR TREATING CANCER” (Epizyme, Inc., priority 2014, published 2019).
Each block holds one compound with its values, some of them ahead of it.

What was measured:
MOLM-13 (MLL-AF9) cells [1] = assay: Example 7 primary screen: 300 nM EPZ-5676 pre-treatment, second compound 72 h, ATPLite, GI100 shift; format: cell-based, human; details: MOLM-13 (MLL-AF9); 300 nM EPZ-5676 pre-treatment vs DMSO
Experimental: (§1) Cells were split using EPZ-5676 or DMSO containing growth media and further incubated for an additional 3-day pre-treatment time. Cells were finally seeded in growth media containing EPZ-5676 or DMSO in 384-well plates at 500 cell/well density. Cells were then equilibrated in incubators for 24 hours before treatment with a second compound. Treated assay plates were incubated with a second compound for 72 hours. After this time, plates were developed for endpoint analysis using ATPLite to measure ATP content, which is used as an indicator of cell viability.
(§2) “N/D” means the GI100 of the second compound could not be determined for both conditions and “-” means not tested.
(§3) Growth Inhibition (GI) as a measure of cell viability: The cell viability of vehicle was measured at the time of dosing the second agent (T0) and after seventy-two hours (T72). A GI reading of 0% represents no growth inhibition—cells treated with test compound as compared to T72 vehicle signals were measured. […] A GI 200% represents complete death of all cells in the culture well. Compounds reaching an activity plateau of GI 200% are considered cytotoxic. GI is calculated by applying the following test and equation: […]

MV4-11 (MLL-AF4) cells = assay: Combination proliferation assay with Compound A2 (CellTiter-Glo, Chou-Talalay CI); format: cell-based, human; details: MV4-11 (MLL-AF4); 7 Day Cotreatment Model
Outline: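 Viability by CellTiter-Glo ATP luminescence; fraction affected versus DMSO controls; combination index by Chou-Talalay method (CI <1 synergy, >1 antagonism).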

MOLM-13 (MLL-AF9) cells [2] = assay: as above; format: cell-based, human; details: MOLM-13 (MLL-AF9); 7 Day Cotreatment Model
Experimental: The acute myelogenous leukemia cell lines MV4-11 (MLL-AF4) and MOLM-13 (MLL-AF9) were obtained from American Type Culture Collection (ATCC; Rockville, Md.) and Deutsche Sammlung von Mikroorganismen and Zellkulturen (DSMZ; Braunschweig, Germany) respectively.
(§4) Studies were performed using MLL-rearranged cell lines in vitro to evaluate the anti-proliferative effect of a combination of two agents together on cell growth. Initial proliferation studies were performed to determine the IC50 of a given compound in each cell line. The cell counts were measured by ATP quantitation using the Promega Cell Titer Glo kit and luminescence values corresponded to the amount of ATP in a given well.
Compounds were evaluated for synergy in the co-treatment phase by testing the compounds in a concentration range which was bracketed around their IC50 values. The compounds were plated to a 96 well plate in a matrix format (FIG. 3) which includes increasing concentrations of each drug in the combination in a constant ratio, in addition to the effect of each compound alone in the study. Cells were seeded and grown in the log-linear phase for 3 or 7 days in the co-treatment phase. Minimum inhibition (DMSO alone) controls were used in each plate to calculate fraction affected (Fa) of a test well. DMSO concentration was kept at 0.1% v/v.
The drug combination analysis was performed utilizing the Chou-Talalay method Synergy was determined using the software package Calcusyn by Biosoft. The combination index (CI) is a quantitative term used to describe the level of synergy or antagonism in a given test system. A combination index less than one indicates synergy, and a CI greater than one indicates antagonism. Further, strong synergism is achieved when the CI value falls below 0.3.
The HP-D300 digital dispenser (Tecan) was used to dispense compounds in a combinatorial matrix. […] Cell viability was measured via ATP content using CellTiter-Glo® (Promega).
(§5) Viability was determined using CellTiter-Glo® (Promega).
Cell viability was measured via ATP content using CellTiter-Glo® (Promega).
as §4, with “Proliferation studies” for “Studies”, “MOLM-13, MV4-11 and SKM-1” for “MLL-rearranged”, “cancer cell killing” for “anti-proliferative”, “IC50 values” for “IC50”, “correspond” for “corresponded”
These studies were performed to evaluate both the combinatorial effect of compounds on cell killing and the durability of the effect by washing out one of the agents.
(§6) Compounds evaluated for synergy in the co-treatment phase were tested in a range which was bracketed around the IC50's. The compounds were plated to a 96 well plate in a matrix format which includes increasing concentrations of each drug in the combination in a constant ratio, in addition to the effect of each compound alone in the study. Cells were seeded and grown in the log-linear phase for 3 or 7 days in the cotreatment phase. Maximum and minimum inhibition (DMSO alone) controls were used in each plate to calculate fraction affected (Fa) of a test well. DMSO concentration was kept at 0.1% v/v. The drug combination analysis was performed utilizing the Chou-Talalay method. Synergy was determined using the software package Calcusyn by Biosoft. The combination index (CI) is the term used to describe the level of synergy or antagonism in a given test system. A combination index less than one indicates synergy, and a CI greater than one indicates antagonism.
(§7) The drug combination analysis was performed using the Chou-Talalay method. Graphs representing values of combination index (CI) versus Fractional effect (Fa) known as Fa-CI plots were generated and synergy was evaluated.

[3] = test system: SKM-1 (non-MLL-rearranged AML) cells; assay: as above; format: cell-based, human; details: SKM-1; Compound A2 concentrations greater than 1000 nM
Experimental: Graphs representing values of combination index (CI) versus Fractional effect (Fa) known as Fa-CI plots were generated and synergy was evaluated.
as §5
MV4-11 cells were maintained in IMDM supplemented with 10% fetal bovine serum. MOLM-13 and SKM-1 cells were maintained in Roswell Park Memorial Institute medium (RPMI) supplemented with 10% fetal bovine serum. They were cultured in flasks or plates in a humidified 5% CO2 atmosphere.
as §4, with “Proliferation studies” for “Studies”, “MOLM-13, MV4-11 and SKM-1” for “MLL-rearranged”, “cancer cell killing” for “anti-proliferative”, “IC50 values” for “IC50”, “correspond” for “corresponded”
as §6, §7

SKM-1 (non-MLLr) cells = assay: Example 7 retest: EPZ-5676 pre-treatment, second compound 72 h, Cell Titer Glo, growth inhibition; format: cell-based, human; set-up: GI100: unit not given here; details: SKM-1 (non-MLLr)
Experimental: (§8) Cells were then treated with a second compound for 72 hours. After this time, plates were developed for endpoint analysis using Cell Titer Glo to measure ATP content, which is used as an indicator of cell viability.
as §2
as §3, with “(T72).” for “(T72). A GI reading of 0% represents no growth inhibition—cells treated with test compound as compared to T72 vehicle signals were measured.”

MOLM-13 (MLL-AF9) cells [4] = assay: as above; format: cell-based, human; set-up: GI100: unit not given here; details: MOLM-13 (MLL-AF9); for Combination result with EPZ-5676, Retest: 150 nM EPZ-5676 pre-treatment vs DMSO
Experimental: as §8, §2
as §3, with “(T72).” for “(T72). A GI reading of 0% represents no growth inhibition—cells treated with test compound as compared to T72 vehicle signals were measured.”

[5] = test system: OCI-AML-4 (MLL-ENL) cells; assay: as above; format: cell-based; details: OCI-AML-4 (MLL-ENL)
Experimental: as §8, §2
as §3, with “(T72).” for “(T72). A GI reading of 0% represents no growth inhibition—cells treated with test compound as compared to T72 vehicle signals were measured.”

THP-1 (MLL-AF9) cells = assay: as above; format: cell-based; details: NRAS G12D
Experimental: as §1, with “96-well plates.” for “384-well plates at 500 cell/well density.”, “treated” for “equilibrated in incubators for 24 hours before treatment with a second compound. Treated assay plates were incubated”, “Cell Titer Glo” for “ATPLite”
as §2, §3

ML-2 (MLL-AF6) cells = assay: as above; format: cell-based; set-up: GI100: unit not given here; details: ML-2 (MLL-AF6), KRAS A146T (het)
Experimental: as §8, §2
as §3, with “(T72).” for “(T72). A GI reading of 0% represents no growth inhibition—cells treated with test compound as compared to T72 vehicle signals were measured.”

RS4-11 (MLL-AF4) cells = assay: as above; format: cell-based; set-up: GI100: unit not given here; details: RS4-11 (MLL-AF4), Ras mutation status: None known, second compound, 72 h
Experimental: as §8, §2
as §3, with “(T72).” for “(T72). A GI reading of 0% represents no growth inhibition—cells treated with test compound as compared to T72 vehicle signals were measured.”

[6] = 300 nM EPZ-5676 pre-treatment vs DMSO
[7] = KRAS K117N (homo), second compound, 72 h

SMILES: Cn1c(Nc2ccc(C(F)(F)F)cc2)nc2cc(Oc3ccnc(-c4ncc(C(F)(F)F)[nH]4)c3)ccc21 [RAF265]
Combination result with EPZ-5676, Primary screen (MOLM-13 (MLL-AF9) cells [1]): Synergy (considered synergistic if the GI100 (Growth inhibition 100) value of the second compound decreased by 2-fold or more when EPZ-5676 was added as compared to the DMSO control)

SMILES: C[C@]12C=CC(=O)C=C1CC[C@@H]1[C@@H]2[C@@H](O)C[C@@]2(C)[C@H]1CC[C@]2(O)C(=O)CO [Prednisolone]
Combination effect with Compound A2 (Table 4) (MV4-11 (MLL-AF4) cells): antagonism
Combination effect with Compound A2 (Table 4) (MOLM-13 (MLL-AF9) cells [2]): antagonism
Antiproliferative activity in presence of Compound A2 [3]: enhanced antiproliferative activity

GI50 (SKM-1 (non-MLLr) cells; [7]): 0.44 µM
GI50 (MOLM-13 (MLL-AF9) cells [4]; Homo sapiens, Ras mutation status: None known, second compound, 72 h): 1.67 µM
GI50 ([5]; NRAS Q61R (het), second compound, 72 h): 2.1 µM
GI50 (THP-1 (MLL-AF9) cells): 0.81 µM
GI50 (RS4-11 (MLL-AF4) cells; Homo sapiens): > 10 µM
SMILES: CC(C)Nc1cc(-c2c[nH]c(C(=O)N[C@H](CO)c3cccc(Cl)c3)c2)c(Cl)cn1 [Ulixertinib]
Combination result with EPZ-5676, Retest (SKM-1 (non-MLLr) cells; [6]): Synergy (considered synergistic if the GI100 (Growth inhibition 100) value of the second compound decreased by 2-fold or more when EPZ-5676 was added as compared to the DMSO control)
Result (combination with EPZ-5676) (SKM-1 (non-MLLr) cells; KRAS K117N (homo)): Synergy (considered synergistic if the GI100 (Growth inhibition 100) value of the second compound decreased by 2-fold or more when EPZ-5676 was added as compared to the DMSO control)
GI100 (SKM-1 (non-MLLr) cells; [7]): 1.500
Combination result with EPZ-5676, Retest (MOLM-13 (MLL-AF9) cells [4]): Synergy (considered synergistic if the GI100 (Growth inhibition 100) value of the second compound decreased by 2-fold or more when EPZ-5676 was added as compared to the DMSO control)
Result (combination with EPZ-5676) (MOLM-13 (MLL-AF9) cells [4]; Ras mutation status: None known): Synergy (considered synergistic if the GI100 (Growth inhibition 100) value of the second compound decreased by 2-fold or more when EPZ-5676 was added as compared to the DMSO control)
GI100 (MOLM-13 (MLL-AF9) cells [4]; Ras mutation status: None known, second compound, 72 h): 3.96
Combination result with EPZ-5676, Retest [5, 6]: Synergy (considered synergistic if the GI100 (Growth inhibition 100) value of the second compound decreased by 2-fold or more when EPZ-5676 was added as compared to the DMSO control)
Result (combination with EPZ-5676) ([5]; NRAS Q61R (het)): Synergy (considered synergistic if the GI100 (Growth inhibition 100) value of the second compound decreased by 2-fold or more when EPZ-5676 was added as compared to the DMSO control)
Result (combination with EPZ-5676) (ML-2 (MLL-AF6) cells): Synergy (considered synergistic if the GI100 (Growth inhibition 100) value of the second compound decreased by 2-fold or more when EPZ-5676 was added as compared to the DMSO control)
GI50 (ML-2 (MLL-AF6) cells; second compound, 72 h): 0.63 µM
GI100 (ML-2 (MLL-AF6) cells; second compound, 72 h): 2.711
GI100 (RS4-11 (MLL-AF4) cells): >10

SMILES: CNC(=O)c1cc(Oc2ccc(NC(=O)Nc3ccc(Cl)c(C(F)(F)F)c3)cc2)ccn1 [Sorafenib]
Combination result with EPZ-5676, Retest (MOLM-13 (MLL-AF9) cells [4]): Synergy (considered synergistic if the GI100 (Growth inhibition 100) value of the second compound decreased by 2-fold or more when EPZ-5676 was added as compared to the DMSO control)
Combination result with EPZ-5676, Primary screen (MOLM-13 (MLL-AF9) cells [1]): Synergy (considered synergistic if the GI100 (Growth inhibition 100) value of the second compound decreased by 2-fold or more when EPZ-5676 was added as compared to the DMSO control)
